Results as given in US4839466A, “Insulin activity messengers” (The Rockefeller University, priority 1987, dated 1989).

How the values were obtained:
cAMP phosphodiesterase = test: Generation of PDE messenger from liver membranes by insulin or PI-PLC; extracts assayed on cAMP phosphodiesterase; assay type: biochemical, rat
Method: These were generated from bovine liver particulate fractions by a modification of previously described methods. Particulate fraction was prepared from 100 g of bovine liver, and suspended in […] ammonium bicarbonate, pH 7.4. (Buffer A) at a final concentration of 2-4 mg protein/ml. This solution was incubated with […] for 10 min at 37° C., acidified to pH 4.0 with formic acid and sedimented at 45,000 g for 20 min. An equal volume of chloroform/methanol (2:1) was added to the supernatant, and the upper phase was aspirated and methanol was evaporated.
In the tests the results of which are tabulated above, liver membranes were treated as indicated for 10 min at 37° C., centrifuged and supernatants were extracted and purified up to and including the Dowex 50WX-4 step as described earlier herein under "Experimental Frocedures".
Partially purified extracts were assayed for ability to modulate cAMP phosphodiesterase. Basal activity was 56.2 pmoles/mg protein^-1 -min^-1.

BC3 Hl cells = test: Insulin-stimulated labeling/hydrolysis of glycolipid (PI-glycan) precursor and water soluble products in BC3 Hl cells; assay type: cell-based, murine
Method: FIG. 7--SAX HPLC of Radiolabeled Mediators from Insulin Treated Cells. BC3 Hl cells were cultured at 37° C. in Dulbecco's Minimal Essential Medium in the presence of 20% NU serum (Collaborative Research) on collagen coated 10 mm miniwells. Cells (1×10^6 /well) were preincubated with 10 uCi (A) [2,6^3 H]myoinositol or (B) [1,6^3 H]glucosamine (New England Nuclear) for 20 hours in the presence of 20% Nu Serum. Insulin was added to cells in monolayer in serum free media at a final concentration of 10 nM. Reactions were terminated by removal of media and addition of 1 ml chloroform/methanol/1N HCl (200:100:1), followed by addition of 0.5 ml 10 mM formic acid. Organic and aqueous phases were separated by centrifugation at 500 x g for 5 min.
The water soluble labeled products were purified by a modification of a previously described protocol for purification of cAMP phosphodiesterase (PDE) modulators. The aqueous phases were chromatographed on DEAE-Cellulose, eluted with 0.25 TEA-formate, pH 3.75. This fraction was eluted through a C-18 reversed phase sepak in the same buffer. Following lyophilization, the solution was eluted through Dowex 50WX-4 in 50 mM TEA-formate. pH 3.0. After exposure to activated charcoal, samples were chromatographed on an SAX HLPC column (Whatman), eluted with a linear, 15 minute gradient of 60% methanol (A) to 0.5M TEA-formate, pH 3.75 (B) at 1 ml/minute. One ml fractions were counted. The two peaks of insulin stimulated radioactivity coeluted with similarly purified, myocyte derived PDE modulating activities.
FIG. 9--Thin Layer Chromatography of the Radiolabeled Precursor from Insulin Treated Cells. (A) [^3 H]inositol and B) [^3 H]glucosaminelabeled cells were treated with or without 10 nM insulin. Following extraction and phase separation, the organic phase were dried under N2, resuspended in chloroform/methanol/H2 O (9:7:2); and spotted on oxalate impregnated Silica gel G plates. These were twice developed in chloroform/acetone/methanol/glacial acetic acid/H2 O (10:4:2:2:1). One cm regions were scraped and radioactivity determined by scintillation counting. Phosphoinositides were identified by iodine staining of standards.
FIG. 11--Time Course of Precursor Hydrolysis by Insulin. Cells prelabeled with [^3 H]inositol were treated with 10 nM insulin for the designated intervals. Cells were extracted and phase separated as detailed in FIG. 7. Aqueous phases were chromatographed up to and including the SAX HPLC step (upper panel). Results reflect counts from a combination of Peaks I and II. The ratio of counts in these peaks were unchanged over the time course. The precursor residing in the organic phases was identified by the peak on TLC with an Rf =0.22, corresponding to the species depleted by PI-PLC (FIG. 10).
Following preincubations with the appropriate isotopes, cells were resuspended in DMEM without serum and treated with 10 nM insulin at the designated intervals. Reactions were terminated by the addition of 1 ml chloroform/methanol/1N HCl (200:100:1), followed by 0.5 ml 10 mM formic acid. Following centrifugation at 500 x g for 5 min., the upper phase was discarded. For phospholipid analyses, the lower, organic phase was dried under N2, resuspended in chloroform/methanol/H2 O (9:7:2) and spotted on oxalate impregnated silica gel G plates. These were sequentially developed in chloroform/acetone/methanol/glacial acidic acid/H2 O (10:4:2:2:1) and chloroform/methanol/4N NH4 OH (45:35:10). One cm regions were scraped and eluted with chloroform/methanol (2:1) and counted. Phosphoinositide standards were identified by iodine staining.

Substance: Insulin: monocomponent bovine insulin
- stimulation/increase of production of PDE modulating activity from membranes (cAMP phosphodiesterase; after partial purification, PI-PLC 1.0 ug/ml): 4 fold
- PDE Activity (cAMP phosphodiesterase; extract of liver membranes treated 10 min at 37° C. (1.0 nM Insulin, PI-PLC), purified up to Dowex 50WX-4, basal 56.2, untreated membranes 78.5): 138.0 pmol mg protein^-1 min^-1
- production of [3H]inositol containing products (Peaks I and II combined), share of the maximal effect (BC3 Hl cells; 10 nM insulin, after 30 sec): Seventy
- increase of [3H]inositol radioactivity in the precursor over control levels (BC3 Hl cells; 10 nM insulin, after the initial decrease): 60%
- decrease in [3H]inositol counts in the precursor (BC3 Hl cells; 10 nM insulin, at 30 sec): 20%
- decrease in [3H]inositol labeling of the PI-glycan (BC3 Hl cells; Example IV, after 30 seconds of insulin exposure): 20%
- decrease in [3H]myristate labeling of the PI-glycan (BC3 Hl cells; Example IV, by 1 min. of insulin): 60%
- gradual increase in [3H]inositol counts of the PI-glycan (BC3 Hl cells; Example IV, following the initial decrease): 40%
- time until [3H]myristate labeling of the PI-glycan returned to basal levels (BC3 Hl cells; Example IV, insulin): 20 to 30 min
- increase of [3H]glucosamine incorporation in the precursor glycolipid peak (BC3 Hl cells; insulin 10 nM for 10 min., TLC): approximately 40%
- increase of [3H]inositol incorporation in the precursor glycolipid peak (BC3 Hl cells; insulin 10 nM for 10 min., TLC): approximately 40%
